The target of series [1] is T1, voltage-gated calcium channel Cav1.2 (Homo sapiens, UniProt Q13936).
T1 construct: Eurofins Discovery Services (Eurofins Panlabs Inc) ran the assay
Kind of series: CiPA cell-based QPatch ion channel inhibition. As to conditions: maximum concentration of 30 uM. The protocol:
(§1) Assays for human CYP activity (CYP phenotyping), CYP2D6 metabolite discovery (metID), ion channel inhibition (CiPA), and G-protein coupled receptor (GPCR) activity (gpcrMAX) were performed through Eurofins Discovery Services (Eurofins Panlabs Inc, St. Charles MO, USA). In the CYP phenotyping panel, human recombinant CYP1A2, CYP2B6, CYP2C8, CYP2C9, CYP2C19, CYP2D6, and CYP3A4 were included in the assay. A concentration of 1E-07 M of PTX 251D was tested, and the percent compound remaining was quantified at 0, 15, 30, 45, and 60 minutes using HPLC-MS/MS. As a positive control, a reference compound was used for each CYP tested (see S1 File for results). In the CYP2D6 metabolism assay, human recombinant CYP2D6 was incubated with an initial concentration of 10 μM and metabolites were quantified after 90 minutes using LC-MS/MS. Two replicates were used for the CYP phenotyping panel and one replicate was used for CYP2D6 metabolite assay. The CiPA assay was a cell-based QPatch on voltage-gated sodium channel NaV1.5 (peak and late/agonist), voltage-gated potassium channels Kv4.3/KChIP2, hERG, KCNQ1/minK, Kir2.1, and voltage-gated calcium channel Cav1.2. The concentrations of PTX 251D assayed were 3, 10, and 30 μM, and a reference compound for each channel was used (see S1 File for results and individual QPatch parameters). In the gpcrMAX assay a panel of 165 GPCRs was tested through the DiscoverX PathHunter beta-arrestin enzyme fragment complementation technology, and a concentration of 10 μM PTX 251D was tested for both agonist and antagonist activity along with a reference compound for each GPCR (see S1 File for results).
(In general: The patch-clamp technique gives a direct electrical read-out from membranes.)

Series [2] has as its target T2, KCNQ1/minK (Homo sapiens, UniProt P51787).
T2 construct: Eurofins Discovery Services (Eurofins Panlabs Inc) ran the assay
Put plainly: CiPA cell-based QPatch ion channel inhibition. As to conditions: maximum concentration of 30 uM. The procedure: as §1

Series [3] has as its target T3, Kv4.3/KChIP2 (Homo sapiens, UniProt Q9UK17).
T3 construct: Eurofins Discovery Services (Eurofins Panlabs Inc) ran the assay
T3 sequence (Q9UK17 1-655): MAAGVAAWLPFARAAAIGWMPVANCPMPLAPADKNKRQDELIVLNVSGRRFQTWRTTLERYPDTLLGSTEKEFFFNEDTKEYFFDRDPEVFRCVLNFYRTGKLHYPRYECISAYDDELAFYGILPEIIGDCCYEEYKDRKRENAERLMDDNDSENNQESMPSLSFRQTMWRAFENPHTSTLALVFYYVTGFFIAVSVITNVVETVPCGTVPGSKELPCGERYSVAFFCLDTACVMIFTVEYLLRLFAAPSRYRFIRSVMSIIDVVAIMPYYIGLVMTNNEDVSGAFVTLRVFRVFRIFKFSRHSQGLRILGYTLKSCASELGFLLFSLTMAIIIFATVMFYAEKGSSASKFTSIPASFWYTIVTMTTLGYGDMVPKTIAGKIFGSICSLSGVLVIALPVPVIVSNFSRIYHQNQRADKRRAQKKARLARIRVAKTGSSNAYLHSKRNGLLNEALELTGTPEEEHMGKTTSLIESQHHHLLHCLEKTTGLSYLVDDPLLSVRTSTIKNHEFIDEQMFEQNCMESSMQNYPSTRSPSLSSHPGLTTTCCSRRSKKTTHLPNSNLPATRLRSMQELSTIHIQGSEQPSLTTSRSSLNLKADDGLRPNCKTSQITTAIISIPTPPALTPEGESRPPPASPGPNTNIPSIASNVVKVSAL
T3 sequence (Q9NS61 1-270 partner): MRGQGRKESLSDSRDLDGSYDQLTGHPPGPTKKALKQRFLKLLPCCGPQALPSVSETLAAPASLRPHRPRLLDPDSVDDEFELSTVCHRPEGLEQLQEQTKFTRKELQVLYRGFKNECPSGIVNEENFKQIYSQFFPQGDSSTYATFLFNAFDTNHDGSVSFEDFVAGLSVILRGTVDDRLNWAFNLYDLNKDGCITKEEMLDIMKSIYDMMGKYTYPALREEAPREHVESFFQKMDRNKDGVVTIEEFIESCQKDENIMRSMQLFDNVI
Kind of series: CiPA cell-based QPatch ion channel inhibition. As to conditions: maximum concentration of 30 uM. The protocol:
as §1

The target of series [4] is T4, hERG (Homo sapiens, UniProt Q12809).
T4 construct: Eurofins Discovery Services (Eurofins Panlabs Inc) ran the assay
Kind of series: CiPA cell-based QPatch ion channel inhibition. As to conditions: maximum concentration of 30 uM. The protocol: as §1

Series [5] addresses T5, voltage-gated sodium channel NaV1.5 (Homo sapiens, UniProt Q14524).
T5 construct: Eurofins Discovery Services (Eurofins Panlabs Inc) ran the assay
Put plainly: CiPA cell-based QPatch ion channel inhibition. As to conditions: maximum concentration of 30 uM. The protocol:
as §1

Series [6] concerns the target T6, Kir2.1 (Homo sapiens, UniProt P63252).
T6 construct: Eurofins Discovery Services (Eurofins Panlabs Inc) ran the assay
T6 sequence (P63252 1-427): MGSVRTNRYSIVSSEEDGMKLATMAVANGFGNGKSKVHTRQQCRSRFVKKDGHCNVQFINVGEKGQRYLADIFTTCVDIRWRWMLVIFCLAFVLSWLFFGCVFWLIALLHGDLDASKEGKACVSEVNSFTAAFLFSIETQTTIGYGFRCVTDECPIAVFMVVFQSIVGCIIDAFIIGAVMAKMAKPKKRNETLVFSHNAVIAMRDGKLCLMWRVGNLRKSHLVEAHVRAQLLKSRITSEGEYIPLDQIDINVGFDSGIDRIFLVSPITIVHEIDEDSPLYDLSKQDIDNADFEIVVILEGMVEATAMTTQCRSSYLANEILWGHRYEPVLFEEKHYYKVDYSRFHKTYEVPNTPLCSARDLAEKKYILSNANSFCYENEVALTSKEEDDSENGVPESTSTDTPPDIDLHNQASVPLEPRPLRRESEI
Kind of series: CiPA cell-based QPatch ion channel inhibition. To be noted: maximum concentration of 30 uM. The procedure:
as §1

Series [7] deals with T7, human recombinant CYP2C19 (Homo sapiens, UniProt P33261).
T7 construct: Eurofins Discovery Services (Eurofins Panlabs Inc) ran the assay
Kind of series: CYP phenotyping panel (PTX 251D clearance). To be noted: 1E-07 M PTX 251D; after 60 minutes. In kind it is in vitro ADME. The protocol: as §1

The subject of series [8] is mice. To be noted: mice and insects; cited from earlier work.
For series [9], the system named is panel of 165 GPCRs. Kind of series: gpcrMAX PathHunter beta-arrestin GPCR panel (agonist and antagonist). In kind it is cell-based, human. To be noted: 10 uM; 165 GPCRs tested. The protocol:
as §1, with “In the gpcrMAX assay a panel of 165 GPCRs was tested through the DiscoverX PathHunter beta-arrestin enzyme fragment complementation technology, and a concentration of 10 μM PTX 251D was tested for both agonist and antagonist activity along with a reference compound for each GPCR (see S1 File for results).” left out

T1 sequence (Q13936 whole entry): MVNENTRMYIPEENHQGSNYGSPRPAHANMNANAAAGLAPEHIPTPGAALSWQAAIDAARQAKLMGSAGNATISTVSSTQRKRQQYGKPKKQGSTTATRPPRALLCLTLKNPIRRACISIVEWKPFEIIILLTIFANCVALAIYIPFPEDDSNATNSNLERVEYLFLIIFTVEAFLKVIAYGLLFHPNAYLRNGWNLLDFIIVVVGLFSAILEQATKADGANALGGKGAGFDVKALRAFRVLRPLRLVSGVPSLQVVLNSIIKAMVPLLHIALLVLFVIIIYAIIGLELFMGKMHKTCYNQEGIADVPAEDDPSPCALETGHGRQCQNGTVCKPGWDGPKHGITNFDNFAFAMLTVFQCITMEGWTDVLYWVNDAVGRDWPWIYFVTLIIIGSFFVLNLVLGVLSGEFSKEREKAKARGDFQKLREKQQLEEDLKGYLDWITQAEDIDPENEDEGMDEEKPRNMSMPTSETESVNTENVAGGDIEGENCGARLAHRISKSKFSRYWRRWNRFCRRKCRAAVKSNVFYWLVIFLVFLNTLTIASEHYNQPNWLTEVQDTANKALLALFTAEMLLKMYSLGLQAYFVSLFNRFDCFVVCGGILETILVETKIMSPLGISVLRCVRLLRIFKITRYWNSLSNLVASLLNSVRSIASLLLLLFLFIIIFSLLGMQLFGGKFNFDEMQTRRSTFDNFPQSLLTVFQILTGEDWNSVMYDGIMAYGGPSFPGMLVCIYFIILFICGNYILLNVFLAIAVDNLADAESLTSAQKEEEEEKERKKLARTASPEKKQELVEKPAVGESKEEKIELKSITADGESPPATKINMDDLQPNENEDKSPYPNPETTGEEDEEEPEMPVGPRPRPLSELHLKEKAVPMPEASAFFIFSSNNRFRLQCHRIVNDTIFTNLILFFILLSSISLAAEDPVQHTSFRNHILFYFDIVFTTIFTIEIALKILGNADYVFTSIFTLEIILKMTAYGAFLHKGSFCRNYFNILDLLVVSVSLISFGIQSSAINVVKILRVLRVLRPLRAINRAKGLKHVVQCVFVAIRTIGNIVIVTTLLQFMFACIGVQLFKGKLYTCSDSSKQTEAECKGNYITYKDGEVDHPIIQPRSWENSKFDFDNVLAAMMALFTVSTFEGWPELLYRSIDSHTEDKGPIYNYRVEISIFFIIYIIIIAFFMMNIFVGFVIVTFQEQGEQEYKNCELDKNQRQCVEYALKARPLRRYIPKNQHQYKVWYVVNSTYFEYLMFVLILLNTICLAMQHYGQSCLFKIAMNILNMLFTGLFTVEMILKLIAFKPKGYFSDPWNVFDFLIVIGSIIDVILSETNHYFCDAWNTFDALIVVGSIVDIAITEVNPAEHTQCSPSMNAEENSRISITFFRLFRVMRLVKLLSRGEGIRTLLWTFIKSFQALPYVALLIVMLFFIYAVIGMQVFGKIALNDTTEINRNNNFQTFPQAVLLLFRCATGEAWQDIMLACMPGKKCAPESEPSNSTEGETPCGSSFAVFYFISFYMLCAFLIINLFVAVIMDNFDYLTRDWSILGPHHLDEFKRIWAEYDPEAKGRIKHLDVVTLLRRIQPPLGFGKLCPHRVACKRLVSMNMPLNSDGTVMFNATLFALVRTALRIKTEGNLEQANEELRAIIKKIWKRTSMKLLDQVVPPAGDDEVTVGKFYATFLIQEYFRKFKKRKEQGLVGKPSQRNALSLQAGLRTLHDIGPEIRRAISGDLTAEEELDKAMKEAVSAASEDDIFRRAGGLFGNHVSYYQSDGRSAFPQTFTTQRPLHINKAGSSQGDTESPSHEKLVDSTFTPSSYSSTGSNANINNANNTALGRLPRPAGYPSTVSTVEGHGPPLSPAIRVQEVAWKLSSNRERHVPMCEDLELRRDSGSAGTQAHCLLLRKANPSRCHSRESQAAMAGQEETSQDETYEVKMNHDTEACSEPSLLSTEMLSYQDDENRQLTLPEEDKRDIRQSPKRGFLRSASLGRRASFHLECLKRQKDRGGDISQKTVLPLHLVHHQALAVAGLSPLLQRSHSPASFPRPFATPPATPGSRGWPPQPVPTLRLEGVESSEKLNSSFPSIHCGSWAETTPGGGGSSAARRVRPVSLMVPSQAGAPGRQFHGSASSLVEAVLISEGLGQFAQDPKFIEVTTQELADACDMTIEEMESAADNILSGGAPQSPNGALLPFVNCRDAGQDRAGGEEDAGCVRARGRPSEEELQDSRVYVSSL
T1 sequence (Q08289 whole entry partner): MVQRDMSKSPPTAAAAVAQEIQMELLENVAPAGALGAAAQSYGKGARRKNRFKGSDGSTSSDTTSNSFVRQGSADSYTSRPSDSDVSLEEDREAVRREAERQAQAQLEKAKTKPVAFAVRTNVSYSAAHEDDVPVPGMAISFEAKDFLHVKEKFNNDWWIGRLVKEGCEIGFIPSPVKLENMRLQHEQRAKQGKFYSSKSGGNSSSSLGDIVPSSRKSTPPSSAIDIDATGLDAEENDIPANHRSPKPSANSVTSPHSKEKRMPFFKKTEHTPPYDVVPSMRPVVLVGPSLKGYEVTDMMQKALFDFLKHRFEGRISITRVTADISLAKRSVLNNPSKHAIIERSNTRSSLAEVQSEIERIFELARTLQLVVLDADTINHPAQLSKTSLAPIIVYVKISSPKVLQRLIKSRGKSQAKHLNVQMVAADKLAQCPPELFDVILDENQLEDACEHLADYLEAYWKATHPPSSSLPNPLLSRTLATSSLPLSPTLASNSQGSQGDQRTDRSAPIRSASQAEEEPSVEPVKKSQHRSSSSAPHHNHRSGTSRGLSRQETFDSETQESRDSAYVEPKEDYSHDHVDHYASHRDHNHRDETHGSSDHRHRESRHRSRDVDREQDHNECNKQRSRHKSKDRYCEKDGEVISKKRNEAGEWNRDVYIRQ
T1 sequence (P54289 25-946 partner limits assumed): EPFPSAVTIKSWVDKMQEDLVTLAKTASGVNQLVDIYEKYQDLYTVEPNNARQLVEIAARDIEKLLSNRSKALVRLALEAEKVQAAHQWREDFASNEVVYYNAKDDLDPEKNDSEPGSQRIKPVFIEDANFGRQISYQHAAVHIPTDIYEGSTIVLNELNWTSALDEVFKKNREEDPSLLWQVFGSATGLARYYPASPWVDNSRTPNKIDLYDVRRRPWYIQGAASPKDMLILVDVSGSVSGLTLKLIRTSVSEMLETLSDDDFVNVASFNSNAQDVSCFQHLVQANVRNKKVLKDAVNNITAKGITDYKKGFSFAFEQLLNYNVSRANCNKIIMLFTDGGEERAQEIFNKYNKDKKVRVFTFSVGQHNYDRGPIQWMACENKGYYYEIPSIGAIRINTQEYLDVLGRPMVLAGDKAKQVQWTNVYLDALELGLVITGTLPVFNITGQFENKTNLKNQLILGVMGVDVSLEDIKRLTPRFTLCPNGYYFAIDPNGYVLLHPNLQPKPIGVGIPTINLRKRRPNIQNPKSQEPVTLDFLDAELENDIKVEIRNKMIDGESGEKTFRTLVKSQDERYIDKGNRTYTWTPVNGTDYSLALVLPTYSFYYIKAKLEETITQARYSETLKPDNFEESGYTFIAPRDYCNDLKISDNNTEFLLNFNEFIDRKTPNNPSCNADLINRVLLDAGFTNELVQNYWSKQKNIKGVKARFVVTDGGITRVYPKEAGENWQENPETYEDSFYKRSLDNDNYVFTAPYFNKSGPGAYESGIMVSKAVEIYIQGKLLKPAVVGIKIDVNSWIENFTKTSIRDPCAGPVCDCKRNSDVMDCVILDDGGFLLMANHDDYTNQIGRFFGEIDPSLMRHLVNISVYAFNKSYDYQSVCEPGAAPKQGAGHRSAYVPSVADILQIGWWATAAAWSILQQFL
T1 sequence (P54289 947-1103 partner limits assumed): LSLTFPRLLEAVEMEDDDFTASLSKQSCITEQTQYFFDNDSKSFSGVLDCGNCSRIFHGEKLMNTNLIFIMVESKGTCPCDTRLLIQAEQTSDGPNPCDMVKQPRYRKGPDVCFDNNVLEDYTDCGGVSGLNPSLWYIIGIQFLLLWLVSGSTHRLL
T2 sequence (P51787 whole entry): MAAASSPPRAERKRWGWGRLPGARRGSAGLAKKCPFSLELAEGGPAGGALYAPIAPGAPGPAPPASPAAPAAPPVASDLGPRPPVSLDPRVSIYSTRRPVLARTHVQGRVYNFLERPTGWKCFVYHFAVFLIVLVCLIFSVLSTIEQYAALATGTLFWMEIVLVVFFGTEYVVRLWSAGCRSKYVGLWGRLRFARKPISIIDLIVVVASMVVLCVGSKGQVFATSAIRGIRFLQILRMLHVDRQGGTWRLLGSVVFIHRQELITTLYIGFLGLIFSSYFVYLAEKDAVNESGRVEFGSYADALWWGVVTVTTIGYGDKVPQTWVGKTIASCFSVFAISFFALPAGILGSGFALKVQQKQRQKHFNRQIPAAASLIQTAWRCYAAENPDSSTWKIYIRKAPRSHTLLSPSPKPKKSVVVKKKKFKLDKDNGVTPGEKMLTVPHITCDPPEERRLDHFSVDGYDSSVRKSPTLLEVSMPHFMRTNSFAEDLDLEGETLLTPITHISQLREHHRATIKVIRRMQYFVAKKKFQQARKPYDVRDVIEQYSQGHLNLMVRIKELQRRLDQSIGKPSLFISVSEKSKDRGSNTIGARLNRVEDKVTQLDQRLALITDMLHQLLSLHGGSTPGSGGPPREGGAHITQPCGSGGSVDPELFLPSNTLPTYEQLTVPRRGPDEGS

Turning to `CCCCC(C)C=C1CN2CCCC2C(C)(O)C1` (stereo not drawn) [PTX 251D, pumiliotoxin (PTX 251D)], the “inhibitory effect on Cav1.2” value in series [1] was “no inhibitory effect”. Also, the “inhibitory effect on KCNQ1/minK” value in series [2] is “no inhibitory effect”. In addition, the “inhibitory effect on Kv4.3/KChIP2” value in series [3] is recorded as “no inhibitory effect”. In series [4], the “inhibitory effect on hERG” value was “no inhibitory effect”. Also, the “inhibitory effect on NaV1.5” value in series [5] is listed as “no inhibitory effect”. The “inhibitory effect on Kir2.1” value in [6] is given as “no inhibitory effect”. Moreover, the “clearance of PTX 251D by CYP2C19” value in series [7] is recorded as “minimal clearance”. In addition, the toxic effects entry in series [8] is “pain, hyperactivity, convulsions and death”. Further, the “inhibition or activation of GPCRs” value in series [9] was “no significant inhibition or activation”.

Values taken from PMC8916643, “Molecular physiology of pumiliotoxin sequestration in a poison frog” (PLoS ONE, 2022).
